Results on six molecules are retold here after ChEMBL document CHEMBL5465560, “Selectivity Literature for EUbOPEN Chemogenomic Library” (2024).

Experiment [1] has as its target Mitogen-activated protein kinase kinase kinase 1 (Homo sapiens, UniProt Q13233). Conditions: at 10 µM.
Experiment [2] concerns the target cAMP-dependent protein kinase catalytic subunit alpha (Homo sapiens, UniProt P17612). As to conditions: at 10 µM.
Experiment [3] concerns the target Proto-oncogene tyrosine-protein kinase Src (Homo sapiens, UniProt P12931). As to conditions: at 10 µM.
Experiment [4] concerns the target Cyclin-dependent kinase 2 (Homo sapiens, UniProt P24941). Description: Selectivity interaction (KinomeScan (DiscoverX)) EUB0000655a CDK2. As to conditions: at 10 µM.
The target of experiment [5] is T1, Aurora kinase A (Homo sapiens) (UniProt O14965).
T1 sequence (whole entry): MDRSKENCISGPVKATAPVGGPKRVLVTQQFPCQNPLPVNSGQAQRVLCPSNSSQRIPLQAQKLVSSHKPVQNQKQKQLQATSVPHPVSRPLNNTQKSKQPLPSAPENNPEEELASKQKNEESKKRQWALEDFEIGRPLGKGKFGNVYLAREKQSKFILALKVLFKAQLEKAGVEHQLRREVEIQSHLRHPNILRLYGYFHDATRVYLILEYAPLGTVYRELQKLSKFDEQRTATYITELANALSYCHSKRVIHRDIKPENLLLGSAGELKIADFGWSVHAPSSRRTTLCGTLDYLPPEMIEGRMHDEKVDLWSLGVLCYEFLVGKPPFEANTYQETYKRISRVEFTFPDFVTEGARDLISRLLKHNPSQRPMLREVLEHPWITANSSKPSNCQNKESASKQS
Description: Selectivity interaction (Kinase panel (Carna Biosciences)) EUB0001542aTs STK6. Conditions: at 1 µM.

Experiment [6] addresses T2, Inhibitor of nuclear factor kappa-B kinase subunit beta (Homo sapiens) (UniProt O14920).
T2 sequence (whole entry): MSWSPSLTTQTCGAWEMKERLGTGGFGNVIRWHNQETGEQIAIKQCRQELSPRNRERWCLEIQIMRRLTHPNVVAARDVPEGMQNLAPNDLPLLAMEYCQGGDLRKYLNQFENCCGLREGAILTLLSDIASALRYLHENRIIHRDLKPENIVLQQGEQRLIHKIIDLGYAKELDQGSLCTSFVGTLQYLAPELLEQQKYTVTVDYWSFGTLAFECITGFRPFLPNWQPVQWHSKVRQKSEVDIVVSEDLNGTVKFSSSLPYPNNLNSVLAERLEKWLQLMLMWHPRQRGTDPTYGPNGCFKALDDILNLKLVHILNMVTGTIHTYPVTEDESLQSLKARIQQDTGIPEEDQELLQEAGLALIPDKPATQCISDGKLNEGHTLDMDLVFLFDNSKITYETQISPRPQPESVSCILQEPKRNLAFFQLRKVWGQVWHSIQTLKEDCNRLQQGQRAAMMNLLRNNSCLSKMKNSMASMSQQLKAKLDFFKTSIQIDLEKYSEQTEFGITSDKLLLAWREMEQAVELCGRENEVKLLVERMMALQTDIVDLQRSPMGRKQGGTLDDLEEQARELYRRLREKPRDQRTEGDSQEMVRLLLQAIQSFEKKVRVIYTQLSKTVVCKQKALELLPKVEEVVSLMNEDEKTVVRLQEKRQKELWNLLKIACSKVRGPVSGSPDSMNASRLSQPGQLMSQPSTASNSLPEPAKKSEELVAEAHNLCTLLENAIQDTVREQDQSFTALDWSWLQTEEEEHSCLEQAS
The experiment in a line: Selectivity interaction (Kinase panel (Z-LYTE Assay)) EUB0001632a IKBKB. As to conditions: at 10 µM.

Experiment [7] addresses T3, Serine/threonine-protein kinase RIO3 (Homo sapiens) (UniProt O14730).
T3 sequence (whole entry): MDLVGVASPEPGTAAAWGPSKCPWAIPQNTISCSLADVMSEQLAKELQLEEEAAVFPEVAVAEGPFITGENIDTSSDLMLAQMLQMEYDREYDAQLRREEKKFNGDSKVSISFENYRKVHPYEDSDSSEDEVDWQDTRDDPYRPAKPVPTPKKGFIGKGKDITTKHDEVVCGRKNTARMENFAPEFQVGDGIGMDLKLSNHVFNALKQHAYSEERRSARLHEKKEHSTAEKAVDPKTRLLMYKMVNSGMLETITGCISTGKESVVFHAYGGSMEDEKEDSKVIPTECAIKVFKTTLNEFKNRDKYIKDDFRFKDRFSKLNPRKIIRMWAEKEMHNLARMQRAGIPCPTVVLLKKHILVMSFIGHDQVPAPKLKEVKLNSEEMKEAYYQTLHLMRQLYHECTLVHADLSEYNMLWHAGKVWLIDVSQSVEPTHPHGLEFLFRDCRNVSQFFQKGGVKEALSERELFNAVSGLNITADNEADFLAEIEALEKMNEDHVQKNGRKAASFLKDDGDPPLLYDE
The experiment in a line: Selectivity interaction (KinomeScan (DiscoverX)) EUB0001619a RIOK3. As to conditions: at 1 µM.

Experiment [8] addresses Serine/threonine-protein kinase tousled-like 2 (Homo sapiens) (UniProt Q86UE8). Description: Selectivity interaction (ActivX KiNativ screen (ex vivo kinase selectivity in human PBMCs)) EUB0001619a TLK2. The format is cell-based. Conditions: PBMC, at 1 µM.

Sequence of Mitogen-activated protein kinase kinase kinase 1 (Q13233 whole entry): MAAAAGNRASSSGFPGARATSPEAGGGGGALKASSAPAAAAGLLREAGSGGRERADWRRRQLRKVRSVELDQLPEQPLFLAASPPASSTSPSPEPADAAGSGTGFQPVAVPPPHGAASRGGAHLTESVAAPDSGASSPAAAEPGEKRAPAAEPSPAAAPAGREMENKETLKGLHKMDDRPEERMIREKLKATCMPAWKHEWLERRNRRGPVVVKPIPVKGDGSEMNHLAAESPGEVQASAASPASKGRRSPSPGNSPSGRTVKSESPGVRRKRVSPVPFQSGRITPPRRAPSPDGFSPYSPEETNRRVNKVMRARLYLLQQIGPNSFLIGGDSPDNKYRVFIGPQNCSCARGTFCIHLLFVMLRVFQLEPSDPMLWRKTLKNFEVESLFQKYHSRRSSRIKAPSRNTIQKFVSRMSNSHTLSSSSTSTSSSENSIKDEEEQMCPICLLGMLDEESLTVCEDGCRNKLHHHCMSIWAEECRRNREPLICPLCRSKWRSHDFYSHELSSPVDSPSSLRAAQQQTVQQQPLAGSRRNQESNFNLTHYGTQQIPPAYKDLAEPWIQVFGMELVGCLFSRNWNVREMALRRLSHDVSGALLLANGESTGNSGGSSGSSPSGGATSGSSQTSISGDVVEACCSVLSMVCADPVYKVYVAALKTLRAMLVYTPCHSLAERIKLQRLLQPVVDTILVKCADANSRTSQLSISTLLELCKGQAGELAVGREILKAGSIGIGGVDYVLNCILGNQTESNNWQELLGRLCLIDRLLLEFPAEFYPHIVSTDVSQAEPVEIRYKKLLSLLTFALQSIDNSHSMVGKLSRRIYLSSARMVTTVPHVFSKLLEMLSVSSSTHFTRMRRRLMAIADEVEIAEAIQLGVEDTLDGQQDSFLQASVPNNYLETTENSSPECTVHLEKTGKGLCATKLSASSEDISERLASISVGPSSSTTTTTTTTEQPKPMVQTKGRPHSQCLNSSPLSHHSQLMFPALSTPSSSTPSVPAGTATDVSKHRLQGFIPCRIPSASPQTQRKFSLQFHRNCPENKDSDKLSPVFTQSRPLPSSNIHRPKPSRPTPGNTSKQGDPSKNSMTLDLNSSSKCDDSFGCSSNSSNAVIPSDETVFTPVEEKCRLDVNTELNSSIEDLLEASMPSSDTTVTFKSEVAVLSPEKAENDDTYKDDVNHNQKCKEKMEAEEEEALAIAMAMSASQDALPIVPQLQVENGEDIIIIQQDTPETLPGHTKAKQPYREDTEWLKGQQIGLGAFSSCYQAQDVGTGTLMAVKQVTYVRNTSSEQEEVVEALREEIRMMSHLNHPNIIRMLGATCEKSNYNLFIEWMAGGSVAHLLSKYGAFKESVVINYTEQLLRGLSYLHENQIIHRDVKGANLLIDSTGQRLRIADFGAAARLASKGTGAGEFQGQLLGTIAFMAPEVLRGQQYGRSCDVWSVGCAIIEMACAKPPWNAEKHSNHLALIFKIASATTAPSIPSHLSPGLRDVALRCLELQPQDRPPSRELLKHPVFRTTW
Sequence of Proto-oncogene tyrosine-protein kinase Src (P12931 2-536 limits assumed): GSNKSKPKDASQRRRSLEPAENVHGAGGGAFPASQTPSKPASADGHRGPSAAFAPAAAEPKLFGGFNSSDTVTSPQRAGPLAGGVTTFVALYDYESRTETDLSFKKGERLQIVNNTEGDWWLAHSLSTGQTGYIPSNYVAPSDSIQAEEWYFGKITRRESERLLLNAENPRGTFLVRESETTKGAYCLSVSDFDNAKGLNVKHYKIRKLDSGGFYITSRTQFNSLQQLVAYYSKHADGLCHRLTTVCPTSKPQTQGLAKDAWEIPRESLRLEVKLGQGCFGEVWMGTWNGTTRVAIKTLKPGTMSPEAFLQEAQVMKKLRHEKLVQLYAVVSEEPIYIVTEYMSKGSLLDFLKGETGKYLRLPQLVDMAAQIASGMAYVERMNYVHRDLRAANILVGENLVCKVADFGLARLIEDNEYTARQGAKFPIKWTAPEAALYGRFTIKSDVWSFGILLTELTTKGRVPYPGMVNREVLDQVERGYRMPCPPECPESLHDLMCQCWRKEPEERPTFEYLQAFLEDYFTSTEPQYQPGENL
Sequence of Serine/threonine-protein kinase tousled-like 2 (Homo sapiens) (Q86UE8 whole entry, looked up): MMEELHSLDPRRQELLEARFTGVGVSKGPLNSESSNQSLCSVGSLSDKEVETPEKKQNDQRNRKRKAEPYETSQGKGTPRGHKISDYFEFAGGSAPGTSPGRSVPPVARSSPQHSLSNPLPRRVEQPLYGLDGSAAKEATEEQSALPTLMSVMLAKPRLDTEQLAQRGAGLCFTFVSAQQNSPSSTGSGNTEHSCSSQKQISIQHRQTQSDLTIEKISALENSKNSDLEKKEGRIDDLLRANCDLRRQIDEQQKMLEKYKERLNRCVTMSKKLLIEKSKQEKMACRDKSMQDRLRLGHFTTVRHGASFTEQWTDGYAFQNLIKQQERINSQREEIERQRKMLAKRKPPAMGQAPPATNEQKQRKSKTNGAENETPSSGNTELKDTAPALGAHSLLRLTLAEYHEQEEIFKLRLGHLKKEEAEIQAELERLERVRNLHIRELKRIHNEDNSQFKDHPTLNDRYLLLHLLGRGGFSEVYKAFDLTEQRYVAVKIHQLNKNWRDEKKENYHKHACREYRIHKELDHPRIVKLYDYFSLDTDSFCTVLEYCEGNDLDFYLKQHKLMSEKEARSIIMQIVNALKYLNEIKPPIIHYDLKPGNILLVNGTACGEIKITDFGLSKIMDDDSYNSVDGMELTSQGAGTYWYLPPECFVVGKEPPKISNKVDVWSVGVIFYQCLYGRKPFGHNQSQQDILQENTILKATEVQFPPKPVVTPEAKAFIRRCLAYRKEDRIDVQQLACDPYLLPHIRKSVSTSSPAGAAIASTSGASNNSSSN

In the case of `Cc1cc([C@@H](C)Nc2ccccc2C(=O)O)c2nc(N3CCOCC3)cc(=O)n2c1` [AZD-6482], in experiment [1], the % of control was found to be 90%.

For the molecule `CCN(CC)CCCCNc1ncc2cc(-c3cc(OC)cc(OC)c3)c(NC(=O)NC(C)(C)C)nc2n1`, the % of control in experiment [2] and in experiment [3] was 100% in each case.

For `CN(C)CCOc1ccc(-c2nc(-c3ccncc3)c(-c3ccc4c(c3)CC/C4=N\O)[nH]2)cc1`, the % of control in experiment [4] is 100%. In turn, `Cn1cc(Nc2nccc(N3CC4CCC(C3)N4C(=O)[C@@H]3CC3(F)F)n2)cn1` yielded a % of inhibition in experiment [5] of 97%.

Turning to `Cn1cc(-n2cnc3c(NCc4nc5cc(Cl)c(Cl)cc5[nH]4)nc(N4CCOCC4)nc32)cn1`, the % of control in experiment [6] is -3.93%. As to `N#Cc1cccc(-c2c[nH]c3ncnc(N4CCOCC4)c23)c1`, the % of control in experiment [7] is 4.8%. In experiment [8], this molecule returned a % of inhibition of 6%.
